Laboratory results as given in patent US10059655B2, “Lipids and lipid compositions for the delivery of active agents” (priority 2013, dated 2018).

Experiments:
Assay type in all cases: physicochemical
[1] = Measurement of mRNA encapsulation in lipid nanoparticles (Quant-iT Ribogreen); conditions: for % encapsulation mRNA Leptin: Leptin mRNA in LNP
Summary of the method: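 LNPs were formed by T-junction mixing of ethanolic lipids (cationic lipid:DSPC:cholesterol:PEG lipid 40:10:38:2) with mRNA in citrate pH 5.8–6.0 at N:P 4:1, then dialysed against PBS overnight at 4 °C. RiboGreen fluorescence (ex 480/em 520 nm) was read on samples diluted 400–2,000-fold in TE with or without 0.75% Triton X-100 and quantified against standard curves. Encapsulation % = (Triton − buffer concentration)/Triton concentration.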

[2] = Measurement of plasmid DNA encapsulation in lipid nanoparticles (Quant-iT Ribogreen)
Experimental: All equipment and disposable supplies are certified free of RNase activity by the manufacturer or rendered RNase free by use of the RNaseZap reagent (LifeTechnologies). Plasmid is encapsulated at a cationic lipid amine to DNA phosphate (N:P) molar ratio of 4:1. Lipids (cationic lipid, DSPC, cholesterol and lipidated PEG) are dissolved in ethanol. The molar ratios are 40:10:38:2, respectively. The mixture is sonicated briefly, then gently agitated for 5 minutes and then maintained at 37° C. until use. Plasmid is exchanged into citrate buffer pH 6.0 by use of Amicon Ultra-15 centrifugal concentrators, and the final concentration is adjusted to 0.053 mg/ml and held at 37° C. until use. An equal volume of lipids in ethanol, plasmid in citrate buffer, and citrate buffer alone are drawn into disposable syringes. Tubing leading from syringes containing lipids and DNA are attached to the T junction, and tubing leading from the syringe containing citrate buffer alone is paired with the tubing exiting the T-junction over a collection vessel containing a stir bar on an active stir plate. Syringes are placed in a syringe pump set to expel contents at a flow rate of 1 ml per minute. The pump is activated, and the collected DNA in lipid nanoparticles is transferred to SnakeSkin dialysis tubing (10,000 MWCO, Thermo Scientific). Material is dialyzed against RNAse- and pyrogen-free 1× phosphate buffered saline overnight at 4° C.
Percent encapsulation of plasmid DNA in lipid nanoparticles is determined using the Quant-iT Ribogreen RNA Assay kit (Life Technologies). The LNP-DNA suspension is assayed in buffer (DNA outside the particle), and buffer plus Triton X-100 detergent (total DNA). The difference calculated is the DNA inside the particle. Prepare a 1000 ng/mL stock using unpackaged plasmid and use this to generate a standard curve (0 ng/ml, 15.63-1000 ng/ml) in TE and TE+0.75% Triton X-100. Prepare LNP-plasmid samples in TE buffer and TE buffer+0.75% Triton X-100 with appropriate dilution so that reading is in the range of standard curve (25 fold). In a 384-well plate (Costar non-treated #3573) add 0.04 ml of standard (in duplicate) or sample (in triplicate) per well. Dilute Ribogreen reagent 240-fold in TE buffer and add 0.06 ml per well. Mix contents of wells and measure fluorescence (excitation=480 nm, emission=520 nm). Subtract background values (no DNA) from standard and test sample values and determine the concentrations of DNA in the samples using the standard curves. Determine the percent encapsulation of the sample by dividing the difference in concentrations between sample+triton and sample in buffer alone by the sample+triton concentration.

[3] = Particle size of the lipid nanoparticle (Z-average, dynamic light scattering, Malvern Zetasizer); conditions: for Size 1st IM / Size 2nd IM: RSV-F replicon RNA LNP, DLS; for Size 1st IM: 1st immunization; for Size 2nd IM: 2nd immunization
Source text: The lipid nanoparticles have a size of about 1 to about 2,500 nm, about 10 to about 1,500 nm, about 20 to about 1,000 nm, in a sub-embodiment about 50 to about 600 nm, in a sub-embodiment about 50 to about 400 nm, in a sub-embodiment about 50 to about 250 nm, and in a sub-embodiment about 50 to about 150 nm. Unless indicated otherwise, all sizes referred to herein are the average sizes (diameters) of the fully formed nanoparticle, as measured by dynamic light scattering on a Malvern Zetasizer. The nanoparticle sample is diluted in phosphate buffered saline (PBS) so that the count rate is approximately 200-400 kcts. The data is presented as a weighted average of the intensity measure.
Unless indicated otherwise, all particle size measurements referred to in Table 3 are the Z-average particle size of the fully formed nanoparticle, as measured by dynamic light scattering on a Malvern Zetasizer. The nanoparticle sample was diluted in phosphate buffered saline (PBS) so that the count rate is approximately 200-400 kcts.
% entrapment (% E), Concentration of RNA (Conc), particle size measured by DLS, and polydispersity reported by DLS of LNPs prepared with different cationic lipids

| Compound | % Encap. ([1]; FLuc mRNA) [%] | % Encap. ([1]; Gluc mRNA) [%] | % encapsulation mRNA Leptin [1] [%] | % Encap. ([1]; hFIX mRNA) [%] | % Encap. ([1]; hLeptin mRNA) [%] | % Encap. ([1]; mEPO mRNA) [%] | % Encap. ([2]; hLep plasmid) [%] | % Encap. ([2]; pDNA) [%] | Size ([3]; FLuc mRNA) [nm] | Size ([3]; FVII siRNA) [nm] | Size ([3]; Gluc mRNA) [nm] | Size 1st IM [3] [nm] | Size 2nd IM [3] [nm] | Size ([3]; hFIX mRNA) [nm] | Size ([3]; hLep plasmid) [nm] | Size ([3]; hLeptin mRNA) [nm] | Size ([3]; mEPO mRNA) [nm] | Size ([3]; pDNA) [nm] |
| --- | --- | --- | --- | --- | --- | --- | --- | --- | --- | --- | --- | --- | --- | --- | --- | --- | --- | --- |
| CCCCC/C=C\C/C=C\CCCCCCCC(=O)OCC(COC(=O)CCCCCCC/C=C\C/C=C\CCCCC)COC(=O)C1(C)CCN(C)C1 (stereo not drawn) [Example 1, (9Z,9′Z,12Z,12′Z)-2-(((1,3-dimethylpyrrolidine-3-carbonyl)oxy)methyl)propane-1,3-diyl bis(octadeca-9,12-dienoate)] | 86.8 | 92.3 | 96.7 | 89.5 | 96.7 | 94.7 | 93.0 | 94.7 | 119.0 | 102.3 | 95.7 | 139.1 | 133.5 | 126.9 | 105.1 | 100.0 | 107.2 | 100.7 |
| CCCCC/C=C\C/C=C\CCCCCCCC(=O)OCC(COC(=O)CCC(OCCCCCCCC)OCCCCCCCC)COC(=O)OCCCN(CC)CC (stereo not drawn) [Example 13, (9Z,12Z)-3-((4,4-bis(octyloxy)butanoyl)oxy)-2-((((3-(diethylamino)propoxy)carbonyl)oxy)methyl)propyl octadeca-9,12-dienoate] | 98.3 | 97.2 | 90.7 | 96.4 | 95.4 | 98.5 | 95.9 | 98.2 | 121.9 | 101.5 | 90.8 | – | – | 122.4 | 121.5 | 127.6 | 113.7 | 95.12 |
| CCCCC/C=C\C/C=C\CCCCCCCC(=O)OCC(COC(=O)CCC(OCCCCCCCC)OCCCCCCCC)COC(=O)OCC1CCCN(CC)C1 (stereo not drawn) [Example 15, (9Z,12Z)-3-((4,4-bis(octyloxy)butanoyl)oxy)-2-(((((1-ethylpiperidin-3-yl)methoxy)carbonyl)oxy)methyl)propyl octadeca-9,12-dienoate] | 98.1 | 98.1 | 97.3 | 98.4 | 97.3 | 98.3 | 93.6 | 93.2 | 100.7 | – | 84.7 | 144.7 | 139.4 | 96.8 | 94.5 | 119.8 | 90.1 | 86.9 |
